Source: patent publication EP0519971B1, “NOVEL […] ACTIVE COMPOUNDS WHICH CAN BE FORMED FROM 1,3,4,6,7,8-HEXAHYDRO-2H-PYRIMIDO-(1,2-a)-PYRIMIDINE” (priority 1990, dated 1991)

experiment: Solubility in water of TBD salts (crude samples); format: physicochemical; conditions: not given
Protocol: Solubilities were determined with the crude samples and indicate the volume of water sufficient to dissolve one gram of the salt.

Which Solubility in water does the source give for C1CN=C2NCCCN2C1.O=C(O)c1cc(Cl)ccc1[N+](=O)[O-] [Example 11, TBD 5-chloro-2-nitrobenzoate] here?
The Solubility in water was ≥ 40 g/100ml.

Which Solubility in water does the source give for C1CN=C2NCCCN2C1.O=C(O)c1ccccc1I [Example 15, TBD 2-iodobenzoate] here?
The Solubility in water was ≥ 10 g/100ml.

Which Solubility in water does the source give for “TBD 5-amino-5-hydroxybenzoate [Example 16]” here?
Its Solubility in water is ≥ 10 g/100ml.

With C1CN=C2NCCCN2C1.C1CN=C2NCCCN2C1.O=C(O)c1cc(C(=O)O)cc([N+](=O)[O-])c1 [Example 17, TBD 5-nitroisophthalate (5-nitrobenzene-1,3-dicarboxylic acid bis TBD salt)] as the compound, how does the Solubility in water read?
Its Solubility in water is ≥ 30 g/100ml.

Which Solubility in water does the source give for C1CN=C2NCCCN2C1.O=C(O)c1ccc([N+](=O)[O-])c(O)c1 [Example 14, TBD 3-hydroxy-4-nitrobenzoate] here?
Its Solubility in water is ≥ 30 g/100ml.

With C1CN=C2NCCCN2C1.O=C(O)c1ccc(Cl)cc1[N+](=O)[O-] [Example 8, TBD 4-chloro-2-nitrobenzoate] as the compound, how does the Solubility in water read?
The Solubility in water was ≥ 10 g/100ml.

Which Solubility in water does the source give for C1CN=C2NCCCN2C1.O=C(O)Cc1ccc([N+](=O)[O-])cc1 [Example 9, TBD 4-nitrophenylacetate] here?
The Solubility in water was ≥ 20 g/100ml.

Which Solubility in water does the source give for C1CN=C2NCCCN2C1.O=C(O)c1ccc(Cl)c([N+](=O)[O-])c1 [Example 12, TBD 4-chloro-3-nitrobenzoate] here?
The Solubility in water was ≥ 40 g/100ml.

Which Solubility in water does the source give for C1CN=C2NCCCN2C1.O=C(O)Cc1ccc([N+](=O)[O-])cc1[N+](=O)[O-] [Example 10, TBD 2,4-dinitrophenylacetate] here?
Its Solubility in water is ≥ 30 g/100ml.

With C1CN=C2NCCCN2C1.O=C(O)c1cc([N+](=O)[O-])ccc1O [Example 13, TBD 5-nitrosalicylate (2-hydroxy-5-nitrobenzoate)] as the compound, how does the Solubility in water read?
The Solubility in water was ≥ 160 g/100ml.

experiment: not given; conditions: pH 6.5

With C1CN=C2NCCCN2C1.O=C(O)c1cc2ccccc2[nH]1 [Example 2, salt of 1,5,7-triazabicyclo-[4.4.7]dec-5-ene (TBD, HHPP) with indole-2-carboxylic acid] as the compound, how does the “Solubility in distilled water” value read?
The value was 70 mg/mL.

same assay, conditions: solution in water

Which pH of solution does the source give for C1CN=C2NCCCN2C1.O=C(O)c1cc2ccccc2[nH]1 [Example 2, salt of 1,5,7-triazabicyclo-[4.4.7]dec-5-ene (TBD, HHPP) with indole-2-carboxylic acid] here?
The pH of solution was 6.5.
